Results from patent publication US20250215030A1, “STAT MODULATORS AND USES THEREOF” (Recludix Pharma, Inc., priority 2022, published 2025).
pIC50: −log10 of the molar value.

Target: T1, pSTAT3 (pY705-STAT3) (Homo sapiens, UniProt P40763)
T1 construct: host or cells: cryopreserved PBMC
Assay: MSD-pSTAT-PBMC Assay (pSTAT3, IL-6 stimulated)
Format: cell-based
Details: not given
Description: Cryopreserved Peripheral Blood Mononuclear Cells (PBMC) are from AllCells. Recombinant Human IL-4 and IL-6 are from Peprotech. Mouse monoclonal anti-STAT3 antibody, rabbit monoclonal anti-pY705-STAT3 antibody, rabbit monoclonal Anti-pY641-STAT6 antibody, and lysis buffer are from Cell Signaling Technology (CST). Mouse monoclonal anti-STAT6 antibody is from BioLegend. Assay plates, blocker, and anti-rabbit secondary antibody are from Meso Scale Discovery (MSD).
Cryopreserved PBMCs were thawed out and allowed to recover overnight in IMDM+10% heat-inactivated FBS prior to plating 50,000 (STAT3) or 25,000 (STAT6) cells per well in 96-well U-bottom tissue culture plates. Cells were treated with compound for 3 hrs, then stimulated with 10 ng/mL IL-6 (STAT3) or 1 ng/mL IL-4 (STAT6) for 10 min. Cells were then spun down and washed with ice-cold PBS prior to lysing the cell pellet with 1× lysis buffer (CST) with 1× HALT protease and phosphatase inhibitor cocktail (Thermo). Lysates were transferred to and incubated overnight at 4° C. with shaking in QuickPlex 96-well high bind assay plates (MSD) pre-coated overnight with 30 μL per well of 0.6 μg/mL mouse monoclonal anti-STAT3 antibody (STAT3) or 2 μg/mL mouse monoclonal anti-STAT6 antibody (STAT6) in 1×PBS, and pre-blocked for 1 hour with 3% Blocker-A (MSD). Captured protein in the assay plates were then washed and probed with 25 μL per well of 0.25 μg/ml rabbit monoclonal anti-pY705-STAT3 antibody (STAT3) or 0.18 μg/ml rabbit monoclonal Anti-pY641-STAT6 antibody (STAT6) in 1% Blocker-A for 1 hour at room temperature with shaking, then washed and probed with 25 ul per well of 1 ug/mi Sulfo-TAG Labeled Goat Anti-Rabbit Antibody (MSD) in 1% Blocker-A for 1 hour at room temperature with shaking. Assay plates were then washed and 150 μL of 1× Read Buffer-T (MSD) was added to each well prior to reading on an SQ120 MSD Plate Reader. Assay signal from each sample was subtracted by the signal from unstimulated control wells and normalized to DMSO control wells. IC50 values were calculated using Graph Pad Prism Dose-Response Nonlinear Regression with variable slope. For both pSTAT3 and pSTAT6 A=≤100 nM; B=>100-1000 nM; C=>1000-3000 nM; and D=>3 μM.

T1 sequence (P40763 whole entry): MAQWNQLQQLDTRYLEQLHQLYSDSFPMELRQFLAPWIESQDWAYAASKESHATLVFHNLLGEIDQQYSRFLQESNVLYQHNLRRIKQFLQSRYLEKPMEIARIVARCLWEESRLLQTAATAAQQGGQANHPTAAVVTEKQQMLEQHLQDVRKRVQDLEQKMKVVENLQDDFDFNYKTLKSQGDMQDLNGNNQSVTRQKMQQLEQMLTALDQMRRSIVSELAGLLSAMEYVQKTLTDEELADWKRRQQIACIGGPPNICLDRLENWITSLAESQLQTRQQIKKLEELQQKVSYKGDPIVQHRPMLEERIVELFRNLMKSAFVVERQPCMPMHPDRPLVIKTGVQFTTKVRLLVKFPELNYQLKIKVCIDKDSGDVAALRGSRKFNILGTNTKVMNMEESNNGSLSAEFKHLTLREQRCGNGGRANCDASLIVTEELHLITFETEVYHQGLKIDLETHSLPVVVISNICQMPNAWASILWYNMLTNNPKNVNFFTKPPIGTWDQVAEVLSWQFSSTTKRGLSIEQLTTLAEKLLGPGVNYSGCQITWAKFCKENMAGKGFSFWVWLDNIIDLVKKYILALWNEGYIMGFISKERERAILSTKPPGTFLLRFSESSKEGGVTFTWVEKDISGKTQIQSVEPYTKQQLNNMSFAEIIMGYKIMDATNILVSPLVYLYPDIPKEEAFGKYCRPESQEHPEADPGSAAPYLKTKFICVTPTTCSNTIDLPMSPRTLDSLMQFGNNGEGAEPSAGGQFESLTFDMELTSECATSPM

SMILES | pIC50
CCCOC(=O)[C@H](C)N[P@@](=O)(Oc1ccccc1)[C@H](F)c1ccc2sc(C(=O)N[C@H]3C[C@H]4C[C@H]4C[C@H]4CC[C@@H](C(=O)N5CC(c6cnccc6N6CCOCC6)C5)N4C3=O)cc2c1 [Compound 396, propyl((S)-((S)-fluoro(2-(((3S,6S,7aR,8aS,9aR)-3-(3-(4-morpholinopyridin-3-yl)azetidine-1-carbonyl)-5-oxodecahydro-1H-cyclopropa[d]pyrrolo[1,2-a]azocin-6-yl)carbamoyl)benzo[b]thiophen-5-yl)methyl)(phenoxy)phosphoryl)-L-alaninate] | > 7.00
CCCOC(=O)[C@H](C)NP(=O)(Oc1ccccc1)C(F)c1ccc2sc(C(=O)N[C@H]3C[C@H]4C[C@H]4C[C@H]4CC[C@@H](C(=O)N5CC(c6cnccc6N6CCOCC6)C5)N4C3=O)cc2c1 (stereo in doubt) [Compound 409, propyl(((R)-fluoro(2-(((3S,6S,7aS,8aR,9aR)-3-(3-(4-morpholinopyridin-3-yl)azetidine-1-carbonyl)-5-oxodecahydro-1H-cyclopropa[d]pyrrolo[1,2-a]azocin-6-yl)carbamoyl)benzo[b]thiophen-5-yl)methyl)(phenoxy)phosphoryl)-L-alaninate] | > 7.00
Cc1ccncc1C1CN(C(=O)[C@@H]2CC[C@@H]3C[C@H]4C[C@H]4C[C@H](NC(=O)c4cc5cc(C(F)P(=O)(N[C@@H](C)C(=O)OC(C)C)Oc6ccccc6)ccc5s4)C(=O)N32)C1 (stereo partly drawn) [Compound 281, isopropyl ((fluoro(2-(((3S,6S,7aS,8aR,9aR)-3-(3-(4-methylpyridin-3-yl)azetidine-1-carbonyl)-5-oxodecahydro-1H-cyclopropa[d]pyrrolo[1,2-a]azocin-6-yl)carbamoyl)benzo[b]thiophen-5-yl)methyl)(phenoxy)phosphoryl)-L-alaninate] | > 7.00
CCCOC(=O)[C@H](COC)NP(=O)(Oc1ccccc1)C(F)c1ccc2sc(C(=O)N[C@H]3C[C@@H]4C[C@@H]4C[C@H]4CC[C@@H](C(=O)N5CC(c6cnccc6C)C5)N4C3=O)cc2c1 (stereo partly drawn) [Compound 284, propyl N-((fluoro(2-(((3S,6S,7aS,8aR,9aR)-3-(3-(4-methylpyridin-3-yl)azetidine-1-carbonyl)-5-oxodecahydro-1H-cyclopropa[d]pyrrolo[1,2-a]azocin-6-yl)carbamoyl)benzo[b]thiophen-5-yl)methyl)(phenoxy)phosphoryl)-O-methyl-L-serinate] | > 7.00
CCCOC(=O)[C@H](C)NP(=O)(Oc1ccccc1)C(F)c1ccc2sc(C(=O)N[C@H]3C[C@@H]4C[C@@H]4C[C@H]4CC[C@@H](C(=O)N5CC(c6cnccc6N6CCC6)C5)N4C3=O)cc2c1 (single isomer, unassigned) [Compound 426] | > 7.00

Same assay, conditions: PBMC, compound 3 hrs, then 10 ng/mL IL-6 for 10 min; MSD pY705-STAT3; read-out: pSTAT3

SMILES | pIC50
CCCOC(=O)[C@H](C)N[P@](=O)(Oc1ccccc1)[C@@H](F)c1ccc2sc(C(=O)N[C@H]3C[C@@H]4C[C@@H]4C[C@H]4CC[C@@H](C(=O)N5C[C@H](c6cccnc6)[C@@H](C#N)C56CC6)N4C3=O)cc2c1 (single isomer, unassigned) [Compound 430] | < 5.52
CC(C)C[C@H](NP(=O)(Oc1ccccc1)C(F)(F)c1ccc2sc(C(=O)N[C@H]3C[C@@H]4C[C@@H]4C[C@H]4CC[C@@H](C(=O)N5CC(C(=O)N6CCOCC6)C5)N4C3=O)cc2c1)C(=O)OCc1ccccc1 (stereo partly drawn) [Compound 163, benzyl ((difluoro(2-(((3S,6S,7aS, 8aR,9aR)-3-(3-(morpholine-4-carbonyl)azetidine-1-carbonyl)-5-oxodecahydro-1H-cyclopropa[d]pyrrolo[1,2-a]azocin-6-yl)carbamoyl)benzo[b]thiophen-5-yl)methyl) (phenoxy)phosphoryl)-L-leucinate] | 5.52 to 6.00
Cn1cnnc1C1CN(C(=O)[C@@H]2CC[C@@H]3C[C@@H]4C[C@@H]4C[C@H](NC(=O)c4cc5cc(C(F)(F)P(=O)(OCCSC(=O)C(C)(C)C)OCCSC(=O)C(C)(C)C)ccc5s4)C(=O)N32)C1 [Compound 201, S,S′-((((difluoro(2-(((3S,6S,7aR, 8aS,9aR)-3-(3-(4-methyl-4H-1,2,4-triazol-3-yl)azetidine-1-carbonyl)-5-oxodecahydro-1H-cyclopropa[d]pyrrolo[1,2-a]azocin-6-yl)carbamoyl)benzo[b]thiophen-5-yl)methyl)phosphoryl)bis(oxy))bis(ethane-2,1-diyl)) bis(2,2-dimethyl-propanethioate)] | > 7.00
CCCOC(=O)[C@H](C)NP(=O)(OCC(F)(F)F)C(F)c1ccc2sc(C(=O)N[C@H]3C[C@@H]4C[C@@H]4C[C@H]4CC[C@@H](C(=O)N5CC(c6cnccc6C)C5)N4C3=O)cc2c1 (stereo partly drawn) [Compound 287, propyl ((fluoro(2-(((3S,6S,7aS,8aR,9aR)-3-(3-(4-methylpyridin-3-yl)azetidine-1-carbonyl)-5-oxodecahydro-1H-cyclopropa[d]pyrrolo[1,2-a]azocin-6-yl)carbamoyl)benzo[b]thiophen-5-yl)methyl)(2,2,2-trifluoroethoxy)phosphoryl)-L-alaninate] | > 7.00
CC(C)CC(=O)SCCOP(=O)(N[C@@H](C)C(=O)OCc1ccccc1)C(F)(F)c1ccc2sc(C(=O)N[C@H]3C[C@@H]4C[C@@H]4C[C@H]4CC[C@@H](C(=O)N5CC(C(=O)N6CCOCC6)C5)N4C3=O)cc2c1 (stereo partly drawn) [Compound 164, benzyl ((difluoro(2-(((3S,6S,7aS, 8aR,9aR)-3-(3-(morpholine-4-carbonyl)azetidine-1-carbonyl)-5-oxodecahydro-1H-cyclopropa [d]pyrrolo[1,2-a]azocin-6-yl)carbamoyl)benzo[b]thiophen-5-yl)methyl)(2-((3-methyl-butanoyl)thio)ethoxy)phosphoryl)-L-alaninate] | < 5.52
CCCOC(=O)[C@H](C)NP(=O)(Oc1ccccc1)C(F)c1ccc2sc(C(=O)N[C@H]3C[C@@H]4C[C@@H]4C[C@H]4CC[C@@H](C(=O)N5CC(c6ncc(C)o6)C5)N4C3=O)cc2c1 (stereo partly drawn) [Compound 325, propyl ((fluoro(2-(((3S,6S,7aS,8aR,9aR)-3-(3-(5-methyloxazol-2-yl)azetidine-1-carbonyl)-5-oxodecahydro-1H-cyclopropa[d]pyrrolo[1,2-a]azocin-6-yl)carbamoyl)benzo[b]thiophen-5-yl)methyl)(phenoxy)phosphoryl)-L-alaninate] | 6.00 to 7.00
CCCOC(=O)[C@H](C)NP(=O)(Oc1ccccc1)C(F)c1ccc2sc(C(=O)N[C@H]3C[C@@H]4C[C@@H]4C[C@H]4CC[C@@H](C(=O)N5CC(c6cc(OC)no6)C5)N4C3=O)cc2c1 (stereo partly drawn) [Compound 362, propyl ((fluoro(2-(((3S,6S,7aS,8aR,9aR)-3-(3-(3-methoxyisoxazol-5-yl)azetidine-1-carbonyl)-5-oxodecahydro-1H-cyclopropa[d]pyrrolo[1,2-a]azocin-6-yl)carbamoyl)benzo[b]thiophen-5-yl)methyl)(phenoxy)phosphoryl)-L-alaninate] | > 7.00
CCCOC(=O)[C@H](C)NP(=O)(Oc1ccccc1)C(F)c1ccc2sc(C(=O)N[C@H]3C[C@@H]4C[C@@H]4C[C@H]4CC[C@@H](C(=O)N5CC(c6cnccc6F)C5)N4C3=O)cc2c1 (stereo partly drawn) [Compound 263, propyl ((fluoro(2-(((3S,6S,7aS,8aR,9aR)-3-(3-(4-fluoropyridin-3-yl)azetidine-1-carbonyl)-5-oxodecahydro-1H-cyclopropa[d]pyrrolo[1,2-a]azocin-6-yl)carbamoyl)benzo[b]thiophen-5-yl)methyl)(phenoxy)phosphoryl)-L-alaniante] | > 7.00
Cc1ccncc1C1CN(C(=O)[C@@H]2CC[C@@H]3C[C@H]4C[C@H]4C[C@H](NC(=O)c4cc5cc(C(F)P(=O)(N[C@@H](C)C(=O)OCC(C)C)Oc6ccccc6)ccc5s4)C(=O)N32)C1 (stereo partly drawn) [Compound 374, isobutyl ((fluoro(2-(((3S,6S,7aS,8aR,9aR)-3-(3-(4-methylpyridin-3-yl)azetidine-1-carbonyl)-5-oxodecahydro-1H-cyclopropa[d]pyrrolo[1,2-a]azocin-6-yl)carbamoyl)benzo[b]thiophen-5-yl)methyl)(phenoxy)phosphoryl)-L-alaninate] | > 7.00
CC(C)OC(=O)[C@H](Cc1ccccc1)OP(=O)(Oc1ccccc1)C(F)(F)c1ccc2sc(C(=O)N[C@H]3C[C@@H]4C[C@@H]4C[C@H]4CC[C@@H](C(=O)N5CC(C(=O)N6CCOCC6)C5)N4C3=O)cc2c1 (stereo partly drawn) [Compound 167, isopropyl (2S)-2-(((difluoro(2-(((3S,6S,7aS, 8aR,9aR)-3-(3-(morpholine-4-carbonyl)azetidine-1-carbonyl)-5-oxodecahydro-1H-cyclopropa[d]pyrrolo[1,2-a]azocin-6-yl)carbamoyl)benzo[b]thiophen-5-yl)methyl) (phenoxy)phosphoryl)oxy)-3-phenyl-propanoate] | < 5.52
